Assay [1] concerns the target T1, Enoyl-[acyl-carrier-protein] reductase [NADH] FabI (Escherichia coli K-12, UniProt P0AEK4).
T1 sequence (P0AEK4 whole entry): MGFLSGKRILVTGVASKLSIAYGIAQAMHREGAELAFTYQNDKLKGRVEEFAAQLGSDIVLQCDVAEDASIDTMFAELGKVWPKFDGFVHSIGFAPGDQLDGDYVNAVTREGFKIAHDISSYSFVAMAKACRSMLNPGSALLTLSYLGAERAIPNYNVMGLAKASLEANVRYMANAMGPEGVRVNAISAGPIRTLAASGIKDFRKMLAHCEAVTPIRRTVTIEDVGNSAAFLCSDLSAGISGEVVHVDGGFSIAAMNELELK
Nature of the assay: Inhibition of Escherichia coli enoyl-ACP reductase FabI.

The target of assay [2] is T2, Enoyl-(Acyl-carrier-protein) reductase (Streptococcus pneumoniae, UniProt Q9FBC5).
T2 sequence (Q9FBC5 whole entry): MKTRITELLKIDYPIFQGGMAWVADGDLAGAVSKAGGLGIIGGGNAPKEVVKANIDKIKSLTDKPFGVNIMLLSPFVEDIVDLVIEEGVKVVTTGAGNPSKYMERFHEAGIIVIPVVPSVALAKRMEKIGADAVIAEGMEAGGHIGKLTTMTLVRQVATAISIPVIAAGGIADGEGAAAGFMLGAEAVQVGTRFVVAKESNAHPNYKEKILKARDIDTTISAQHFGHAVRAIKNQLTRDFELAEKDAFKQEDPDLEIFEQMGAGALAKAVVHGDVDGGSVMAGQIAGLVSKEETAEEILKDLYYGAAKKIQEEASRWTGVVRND
As to the kind of experiment: Inhibition of Streptococcus pneumoniae enoyl-ACP reductase FabK.

For assay [3], the system named is Streptococcus pneumoniae. As to the kind of experiment: Antibacterial activity against Streptococcus pneumoniae KU197 mutant by broth microdilution method. It is filed as functional. A general note: In broth dilution the organism is exposed to a series of concentrations in liquid medium.
The test system of assay [4] is K562. Nature of the assay: Cytotoxicity against human K562 cells. Format: functional, cell-based.

Broadly, the IC50 is the concentration at which inhibition is half-maximal. High values mean a need for much substance, low ones inhibition by little substance. For orientation: MIC means the smallest concentration in the dilution series that meets the test's criterion for growth inhibition. High values mean a less susceptible organism, low ones a more susceptible organism.

In brackets after ≈: the same amount, converted by molar mass. A value given as a limit tells only on which side of the number the result lay.

With `NC(=O)c1ccc(Sc2cnc(NC(=O)NCc3nc(-c4ccccc4)c[nH]3)s2)cc1`, the IC50 is above 32 µM in assay [1] and 0.037 µM in assay [2]. Further, the minimal inhibitory concentration (MIC) in assay [3] was 2 µg/mL (≈ 4.44 µM).

As to `O=C(NCc1nc(-c2ccccc2)c[nH]1)Nc1ncc(Sc2ccc(C(=O)O)cc2)s1`, the IC50 in assay [1] is above 32 µM; in assay [2], 0.098 µM. Further, it took 8 µg/mL (≈ 17.7 µM) to inhibit growth in assay [3] (MIC).

With `O=C(CO/N=C/c1cccc([N+](=O)[O-])c1)Nc1nc2ccccc2s1`, the IC50 was above 32 µM in assay [1] and 1.1 µM in assay [2]. The MIC in assay [3] was above 32 µg/mL.

For the compound `O=C(CSc1nc2ccccc2[nH]1)NCc1nc2ccccc2s1`, the IC50 in assay [1] and in assay [2] was above 32 µM throughout. In addition, the MIC in assay [3] is above 32 µg/mL.

Turning to `CS(=O)(=O)c1ccc2nc(NC(=O)NCc3ccc(-c4ccccn4)s3)sc2c1`, the IC50 in assay [1] is above 32 µM; in assay [2], 3.4 µM. In addition, in assay [3], the MIC was above 32 µg/mL.

With `CS(=O)(=O)c1ccc2nc(NC(=O)NCc3cccnc3)sc2c1`, the results for the IC50 in assay [1] and in assay [2] were above 32 µM and 23 µM, respectively. Moreover, the MIC in assay [3] is above 32 µg/mL.

Consider `CS(=O)(=O)c1ccc2nc(NC(=O)NCCc3cnc[nH]3)sc2c1`, for which the IC50 in assay [1] and in assay [2] was above 32 µM throughout.

Regarding `O=C(Nc1nc2ccccc2s1)OCc1nc2ccccc2[nH]1`, the concentration for half-maximal inhibition (IC50) in assay [1] and in assay [2] was above 32 µM each time. In addition, the MIC in assay [3] is above 32 µg/mL.

For the compound `COc1cccc2sc(NC(=O)NCc3nc4ccccc4[nH]3)nc12`, the IC50 in assay [1] and in assay [2] was above 32 µM each time.

Turning to `COc1ccc2sc(NC(=O)NCc3nc4ccccc4[nH]3)nc2c1`, the IC50 in assay [1] and in assay [2] was above 32 µM throughout.

Regarding `O=C(NCc1nc(-c2ccccc2)c[nH]1)Nc1ncc(-c2ccccc2)s1`, the IC50 in assay [1] is above 32 µM; in assay [2], 0.38 µM. Further, the MIC in assay [3] is 4 µg/mL (≈ 10.7 µM).

For `O=C(NCc1nc(-c2ccccc2)c[nH]1)Nc1ncc(Sc2ccccc2)s1`, the IC50 is above 33 µM in assay [1] and 0.037 µM in assay [2]. Besides, in assay [3], the minimum inhibitory concentration (MIC) is 2 µg/mL (≈ 4.91 µM).

Consider `Cc1ccc2nc(NC(=O)NCc3nc4ccccc4[nH]3)sc2c1`, for which the IC50 in assay [1] is above 32 µM; in assay [2], 2.6 µM. In assay [3], this compound showed an MIC of 16 µg/mL (≈ 47.4 µM).

On to `N#Cc1ccc2nc(NC(=O)NCc3nc4ccccc4[nH]3)sc2c1`, for which the half-maximal inhibitory concentration (IC50) in assay [1] is above 32 µM; in assay [2] it was 4.5 µM. In assay [3], this compound gave an MIC of 8 µg/mL (≈ 23 µM).

For `CS(=O)(=O)c1ccc2nc(NC(=O)NCc3nc4ccccc4[nH]3)sc2c1`, the values for the IC50 in assay [1] and in assay [2] were above 32 µM and 0.74 µM, respectively. The compound further returned an MIC in assay [3] of 4 µg/mL (≈ 9.96 µM).

`O=C(NCc1ncc(-c2ccccc2)[nH]1)Nc1ncc(Sc2ccccn2)s1` returned an IC50 in assay [1] above 32 µM. This compound also gave an MIC in assay [3] of 2 µg/mL (≈ 4.9 µM).

For `O=C(NCc1ncc(-c2ccc(Br)cc2)[nH]1)Nc1ncc(Sc2ccccn2)s1`, the IC50 in assay [4] is above 20 µM; in assay [1] it was above 32 µM. In addition, in assay [3], the MIC is 0.25 µg/mL (≈ 0.513 µM).

On to `CS(=O)(=O)c1ccc2nc(NC(=O)NCc3nc(-c4ccccc4)c[nH]3)sc2c1`, for which the IC50 in assay [1] was above 32 µM; in assay [2], 0.088 µM. In assay [3], this compound had an MIC of 0.5 µg/mL (≈ 1.17 µM).

In assay [1], `O=C(NCc1ncc(-c2cccc(Br)c2)[nH]1)Nc1ncc(Sc2ccccn2)s1` returned a half-maximal inhibitory concentration (IC50) above 32 µM. For the same compound, the MIC in assay [3] was found to be 16 µg/mL (≈ 32.8 µM).

For `O=C(CSc1nc2ccccc2[nH]1)Nc1nc2ccccc2s1`, the IC50 in assay [1] and in assay [2] was above 32 µM in each case. In assay [3], this compound came in with an MIC above 32 µg/mL.

As for `O=C(NCc1ncc(-c2ccc(Cl)c(Cl)c2)[nH]1)Nc1ncc(Sc2ccccn2)s1`, the IC50 was above 32 µM in assay [1] and 0.0037 µM in assay [2]. Moreover, the MIC in assay [3] was 1 µg/mL (≈ 2.09 µM).

In the case of `O=C(NCc1nc(-c2ccccc2)c[nH]1)Nc1nc(-c2ccccc2)cs1`, the IC50 in assay [1] and in assay [2] was above 32 µM throughout.

Take `O=C(NCc1nc2ccccc2[nH]1)Nc1nc2ccccc2s1`: the IC50 was above 32 µM in assay [1] and 6.9 µM in assay [2]. The same compound gave an MIC in assay [3] of 32 µg/mL (≈ 99 µM).

For the compound `O=C(NCc1nc2ccccc2[nH]1)Nc1nc2ccc(F)cc2s1`, the IC50 is above 32 µM in assay [1] and 6.4 µM in assay [2].

For `CS(=O)(=O)c1ccc2nc(NC(=O)NCc3cccs3)sc2c1`, the IC50 in assay [1] was above 32 µM; in assay [2] it was 30 µM. Besides, the MIC in assay [3] is above 32 µg/mL.

As for `COc1ccc2nc(NC(=O)NCc3nc4ccccc4[nH]3)sc2c1`, the IC50 in assay [1] was above 32 µM; in assay [2], 2 µM. Also, inhibition of growth in assay [3] (MIC) required 16 µg/mL (≈ 45.3 µM).

`Oc1cc(Cl)ccc1Oc1ccc(Cl)cc1Cl` [TRICLOSAN]: in assay [2], the IC50 was above 32 µM.
